Series [1] has as its system carboxylesterase. The series can be described thus: Hydrolysis of Compound III in human colon microsomes, effect of BNPP. It is filed as in vitro ADME.
Series [2] can be described thus: Effect of BNPP pretreatment on exposure of III in mice. To be noted: mice pretreated with BNPP vs untreated.
Description: (§4) Balb/c male mice were predosed intraperitoneally with 100 mg/kg (20 mg/mL) of bis(p-nitrophenyl) phosphate (BNPP) in ethanol/polyethylene glycol (PEG400) 10:40 v/v or the vehicle, one hour before dosing with III at 1 mg/kg (1 mg/mL) by intravenous bolus in PEG400, or at 30 mg/kg (5 mL/kg) orally in TGPS/PEG400/PG/PBS.
(§5) Blood samples were collected into heparinized Microtainer tubes, spiked with 30% BNPP solution in ethanol, 10 μl/mL blood. Livers were snap frozen in liquid nitrogen. Samples were stored at −80° C. until analyzed by LC/MS/MS procedure, as described below.
(§6) The MRM mode of detection was used for LC/MS/MS analysis. Test compounds were extracted from plasma by direct protein precipitation with a mixture of acetonitrile, ethanol and dimethyl sulfoxide (DMSO) (2:1:1 v/v) and internal standard. Following vortexing and centrifugation, 10 μL of the extract was analyzed by LC-MS/MS.
(§7) Liver homogenate (20% volume in DMSO: water) was prepared using a Polytron homogenizer. Test compounds were extracted from 100 μL of the homogenized mixture as described for plasma and analyzed by LC/MS/MS.
(§8) LC/MS/MS was performed on PE-Sciex API3000 triple quadrupole mass spectrometer, using Betasil C8 column (3×50 mm, 3 μm), with mobile phase A: 0.1% formic acid in water, and B: 0.1% formic acid in acetonitrile. Multiple reaction monitoring (MRM) in the positive ionization mode and Analyst 1.1 software was used for quantitation and data acquisition.
In series [3] the target is carboxylesterase. The series is described as follows: IC50 of carboxylesterase inhibitor (reduction in metabolic conversion of anti-HCV compound). The series is classed as biochemical. An excerpt: The suitability of a carboxylesterase inhibitor may be confirmed by the guidance provided herein and by methods well known in the art. In one embodiment, in vitro systems may be used. For example, body fluids (e.g., blood), tissue homogenates, or microsomal preparations from tissues (e.g., liver, intestine, etc.) are contacted with the anti-HCV compound in presence or absence of varying concentrations of inhibitor. Decrease in substrate concentration and/or accumulation of metabolic product (e.g., aniline metabolite) are measured by techniques that include, by way of example and not limitation, LC/MS/MS, GC/MS and/or HPLC. These initial determinations can provide an IC50 of the carboxylesterase inhibitor sufficient to affect biotransformation of the anti-HCV compounds. Moroever, use of purified carboxylesterase enzymes, cDNA expressed enzymes, cells transfected with cloned carboxylesterase genes, etc., can be used to identify the specific enzymes responsible for the biotransformation.
Generally, an inhibitor plasma concentration of 5 μM or less is a reasonable IC50 for in vivo applications.

Series [4] has as its system carboxylesterase. The series can be described thus: Effect of enzyme inhibitors on hydrolysis of III in human liver microsomes. To be noted: for inhibition of hydrolysis of III: highest concentrations (NaF 500 mM, BNPP 500 uM); for effect on hydrolysis of III: PMSF 20-500 uM, Proadifen 5-100 uM. It is filed as biochemical. As for the experimental part:
Human male liver microsomes (Xenotech LLC, Kansas City, CS) were incubated with III in presence of increasing concentrations of known inhibitors of carboxylesterase, protease, and cytochrome P450 enzymes, followed by LC/MS/MS analysis of a parent compound and a primary metabolite aniline. […] Incubations were carried out at 37° C., at final concentrations of 0.1 M potassium phosphate buffer/0.1 mM EDTA, pH 7.4, specified concentration of inhibitor, 2 μM substrate, 0.5 mg/mL microsomal protein, 0.1% DMSO, 0.5% acetonitrile, in absence of NADPH. Incubations were started with a substrate, following 10 min preincubation of microsomal reaction mixture with inhibitors at 37° C. Reactions were stopped at specified time points with acetonitrile/methanol/DMSO (50:25:25) containing an internal standard.
(Liver microsomes are a subcellular fraction often used to study metabolism.)

Series [5] concerns carboxylesterase. The series can be described thus: Hydrolysis of Compound III in human small intestinal microsomes, effect of BNPP. It is filed as in vitro ADME.
For series [6], the target named is T1, butyrylcholinesterase (BuChE: EC 3.1.1.8) (Equus caballus, UniProt P81908).
T1 construct: butyrylcholine esterase, equine serum (pseudocholinesterase EC 3.1.1.8, Sigma C1057); purchased Sigma C1057; host or cells: equine serum
The series can be described thus: Hydrolysis of III by purified butyrylcholinesterase. The series is classed as biochemical, equine. As for the experimental part: (§1) The following purified enzymes were used for assays: carboxylesterase from porcine liver (EC 3.1.1.1, Sigma E3019); butyrylcholine esterase, equine serum (pseudocholinesterase EC 3.1.1.8, Sigma C1057); and acetylcholine esterase from electrical eel (EC 3.1.1.7, Sigma C2629).
(§2) Purified enzyme preparations (0.2-2.0 units/mL) were incubated 0-30 min at 37° C. in 0.1 M potassium phosphate buffer, 0.1 mM EDTA, pH 7.4 and 0.5 mg/mL of bovine serum albumin. The substrate was delivered in 0.02% DMSO and 0.6% acetonitrile. Incubations were performed for 0-30 min at 37° C., separately for each time point. The reactions were terminated by precipitation with acetonitrile/ethanol/DMSO mixture, followed by filtering and LC/MS/MS analysis. […] Initial rates of substrate disappearance or product appearance were calculated by linear regression of 5-6 separate incubations.

Series [7] is described as follows: Metabolic stability in human liver microsomes. The series is classed as in vitro ADME. As for the experimental part: (§3) Liver microsomes prepared from human (male and/or female) or Sprague-Dawley rat (female) (Xenotech LLC, Kansas City, CS), were incubated with compound II (FIG. 3) or III (FIG. 4), followed by LC/MS/MS analysis of a parent compound and a primary metabolite aniline. Incubations were carried out at 37° C., at final concentrations of 0.1 M potassium phosphate buffer/0.1 mM EDTA, pH 7.4, 1 μM substrate, 0.5 mg/mL microsomal protein, 0.01% DMSO, 0.3% acetonitrile, in presence or absence of 1 mM NADPH. Reactions were stopped at specified time points with acetonitrile/methanol/DMSO (50:25:25) containing an internal standard.

The target in series [8] is T2, acetylcholinesterase (AchE: EC 3.1.1.7) (Electrophorus electricus, UniProt O42275).
T2 construct: acetylcholine esterase from electrical eel (EC 3.1.1.7, Sigma C2629); purchased Sigma C2629; host or cells: electric eel
The series can be described thus: Hydrolysis of III by purified acetylcholinesterase. The series is classed as biochemical, electrical eel. Here is the method:
as §1, §2

Another series deals with plasma blood esterases. The series can be described thus: Stabilization of III in mouse blood by carboxylesterase inhibitors. It is filed as in vitro ADME. Here is the method:
Heparinized fresh mouse blood (1.6 mL) from […] was added to Vacutainer Tubes: Cat # 367587, lot 2079758, approx. 2 mL volume (3 mg NaF+6 mg disodium EDTA/tube) and spiked with III at 20 ng/mL blood, with concentration of NaF in blood of […]. Samples were incubated in duplicate at 37° C. up to 2 h. Control samples were incubated in eppendorf tubes without sodium fluoride. Blood concentrations of III and its aniline metabolite were assayed by LC/MS/MS by procedure described in Example 6.

In series [9] the test system is pig liver carboxylesterase (EC 3.1.1.1). The series can be described thus: Hydrolysis of III by purified pig liver carboxylesterase. To be noted: enzyme concentration dependent. It is filed as biochemical, porcine. As for the experimental part: as §1, §2
For series [10] the following is noted: mouse, in vivo, po.
Description: as §4, §5, §6, §7, §8
Series [11] can be described thus: Hydrolysis of III in liver microsomes of several species. It is filed as in vitro ADME, human, monkey, dog, rabbit, rat, mouse. As to conditions: rates per mg protein vary with species. Here is the method: FIG. 4A and FIG. 4B show the stability of […] when incubated in presence of microsomes prepared from human liver (FIG. 4A) or rat liver (FIG. 4B).
Series [12] in a line: In vivo metabolite profile of 14C-labeled II in rats. As to conditions: intravenous administration, HPLC. Further details: species or system Sprague Dawley rats. As for the experimental part: Following administration of the compound to rats, plasma and liver were analyzed by HPLC for drug related metabolites.
Male Sprague Dawley rats were given either a single 1 mg/kg (1 mL/kg) bolus intravenous dose in 70% polyethylene glycol (PEG) 400/30% saline via a tail vein, or a single 1 mg/kg (2 mL/kg) oral dose in 4% polysorbate 80/96% saline of ^14C-labeled anti-HCV II, with radioactive dose of about 30 μCi per animal.
Groups of rats (n=2/dose route/time point) were sacrificed at specified times from 0 to 3 h after dosing. Heparinized plasma and liver were harvested and stored at −70° C. until analyzed. The plasma was assayed by liquid scintillation counting (LSC) in Beckman LS-6000LL Liquid Scintillation Counter.
Livers were homogenized in deionized water, combusted and analyzed by LSC. Portion of the homogenate was extracted by sonication with acetonitrile, centrifuged, and subjected to radioprofiling of supernatant by the Liquid Chromatography with Accurate Radioisotope Counting (LC-ARC). Agilent Series 1100 with Packard Radiomatic 150 radioactivity detector was used for analysis. Waters Spherisorb ODS1, 5 μm, 250×4.6 mm column was used, with mobile phase A: water/acetic acid/ammonium hydroxide (2000:20:20, v/v/v), B: acetonitrile. The radioactivity of peaks was calculated using ARC Data System software.

Series [13] in a line: Metabolic stability in rat liver microsomes. The series is classed as in vitro ADME, Sprague-Dawley rat. As to conditions: rat liver microsomes (FIG. 4B). As for the experimental part: as §3
[14] abbreviates: Human Intestine (pooled 2 subjects), BNPP 50 μM.
Setting [15] is: Human Intestine (pooled 2 subjects), BNPP 500 μM.

T2 sequence (O42275 24-633): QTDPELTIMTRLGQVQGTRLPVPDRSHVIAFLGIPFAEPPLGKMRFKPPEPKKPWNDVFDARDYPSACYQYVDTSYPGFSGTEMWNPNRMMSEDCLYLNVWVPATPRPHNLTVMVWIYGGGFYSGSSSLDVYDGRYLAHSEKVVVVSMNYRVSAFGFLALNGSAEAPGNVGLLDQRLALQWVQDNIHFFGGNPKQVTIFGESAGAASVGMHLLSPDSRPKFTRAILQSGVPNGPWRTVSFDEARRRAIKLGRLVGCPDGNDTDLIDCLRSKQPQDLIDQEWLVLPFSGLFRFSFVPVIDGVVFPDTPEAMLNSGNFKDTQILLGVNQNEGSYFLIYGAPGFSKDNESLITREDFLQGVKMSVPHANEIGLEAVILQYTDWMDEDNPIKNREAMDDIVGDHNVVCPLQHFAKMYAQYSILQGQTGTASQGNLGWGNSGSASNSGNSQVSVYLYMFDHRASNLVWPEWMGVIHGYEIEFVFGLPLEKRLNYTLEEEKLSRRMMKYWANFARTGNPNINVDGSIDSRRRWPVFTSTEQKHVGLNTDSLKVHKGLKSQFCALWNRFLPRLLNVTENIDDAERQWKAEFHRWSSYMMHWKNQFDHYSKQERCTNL
T1 sequence (P81908 whole entry): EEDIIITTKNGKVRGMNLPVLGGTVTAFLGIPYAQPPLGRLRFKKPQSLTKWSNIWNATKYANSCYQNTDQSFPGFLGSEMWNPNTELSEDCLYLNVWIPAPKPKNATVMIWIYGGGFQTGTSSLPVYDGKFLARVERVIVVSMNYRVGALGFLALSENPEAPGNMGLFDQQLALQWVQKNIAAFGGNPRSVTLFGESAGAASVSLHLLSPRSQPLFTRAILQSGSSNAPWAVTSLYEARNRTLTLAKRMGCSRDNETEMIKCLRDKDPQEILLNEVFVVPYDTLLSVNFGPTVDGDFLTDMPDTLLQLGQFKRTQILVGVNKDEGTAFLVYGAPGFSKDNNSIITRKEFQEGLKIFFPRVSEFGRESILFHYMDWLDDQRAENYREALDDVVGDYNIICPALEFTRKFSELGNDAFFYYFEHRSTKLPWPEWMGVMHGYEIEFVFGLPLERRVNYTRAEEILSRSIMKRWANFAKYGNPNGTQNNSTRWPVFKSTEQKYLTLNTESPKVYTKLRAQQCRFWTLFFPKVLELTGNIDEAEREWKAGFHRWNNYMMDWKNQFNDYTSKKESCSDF

On to `O=[N+]([O-])c1ccc(OP(=O)(O)Oc2ccc([N+](=O)[O-])cc2)cc1` [BNPP, bis(p-nitrophenyl) phosphate], for which the Activity with carboxylesterase [1] (Subject 1, BNPP 50 μM) came out at 75%; in the series with carboxylesterase [1] (Subject 1, BNPP 50 μM, hydrolysis of Compound III 1.8 μM), 192 pmol/min/mg; in the series with carboxylesterase [1] (Subject 2, BNPP 50 μM) it was 121%; with carboxylesterase [1] (Subject 2, BNPP 50 μM, hydrolysis of Compound III 1.8 μM), 232 pmol/min/mg; with carboxylesterase [5] (setting [14]), 28%; in the series with carboxylesterase [5] (Human Intestine (pooled 2 subjects), BNPP 50 μM, hydrolysis of Compound III 1.8 μM) it was 432 pmol/min/mg. Moreover, the Activity was 2.6% with carboxylesterase [5] (setting [15]) and 39 pmol/min/mg with carboxylesterase [5] (Human Intestine (pooled 2 subjects), BNPP 500 μM, hydrolysis of Compound III 1.8 μM). Besides, the Inhibition – broadly, how much of the control response was suppressed – in the series with carboxylesterase [1] (Subject 1, BNPP 50 μM) was determined as 25%; with carboxylesterase [1] (Subject 2, BNPP 50 μM) it was 0%; in the series on carboxylesterase [5] (setting [14]), 72%; in the series on carboxylesterase [5] (setting [15]), 97%. Besides, the “levels of parent compound in the liver” value in [2] was “significantly increased”. Also, the IC50 (usually the point on the concentration scale where inhibition reaches its midpoint) at carboxylesterase [3] lay within 10 to 50 µM. In the series on carboxylesterase [4], the “inhibition of hydrolysis of III” value was “Complete inhibition”.

Regarding `O=C(Nc1ccnc(-c2cc(-c3c(Cl)cccc3Cl)no2)c1)C(Cl)Cl` [Compound III], the “hydrolysis of III by purified enzyme” value is on record as “not an efficient substrate” in series [6], “not an efficient substrate” in [8] and “efficiently hydrolyzed” in series [9]. Further, the Activity is recorded as 257 pmol/min/mg in the series with carboxylesterase [1] (Subject 1 microsomes, BNPP 0 μM, substrate 1.8 μM, substrate disappearance); 192 pmol/min/mg with carboxylesterase [1] (Subject 2 microsomes, BNPP 0 μM, substrate 1.8 μM, substrate disappearance); 1516 pmol/min/mg in the series on carboxylesterase [5] (Human Intestine (pooled 2 subjects) microsomes, BNPP 0 μM, substrate 1.8 μM, substrate disappearance). Moreover, the “metabolic stability in vitro of III” value in series [7] (human liver microsomes, absence or presence of NADPH) is “Rapid disappearance of the parent compound”. The “stability of III in blood” value with plasma blood esterases (absence of NaF) is recorded as “rapid decrease in the levels of compound”. Besides, the Cmax entry in [10] is listed as “increased”. Besides, the “bioavailability (F)” value in series [10] was “increased”. Besides, the circulating metabolite entry in series [10] was “significantly reduced”. Besides, the “plasma exposure (AUC)” value in [10] is on record as “increased”. In series [11], the “hydrolysis of III and conversion to aniline metabolite” value was “occurs in microsomes prepared from livers of human, monkey, dog, rabbit, rat, and mouse”.

Take `O=C(Nc1cccc(-c2cc(-c3c(Cl)cccc3Cl)no2)c1)C(Cl)Cl` [Compound II]: the “stability of II in microsomes” value in series [7] (human liver microsomes (FIG. 4A)) and in [13] was “Rapid disappearance of parent compound” each time. In addition, the “metabolite profile in plasma and liver” value in [12] is given as “Aniline is the major product”.

For `[F-].[Na+]` [NaF, Sodium fluoride], in the series with plasma blood esterases (50 mM NaF), the “effect of inhibitor on hydrolysis of III in blood” value is on record as “prevented hydrolysis”. Besides, in the series on carboxylesterase [4], the “inhibition of hydrolysis of III” value is given as “Complete inhibition”.

`O=S(=O)(F)Cc1ccccc1` [PMSF, phenylmethanesulphonyl fluoride]: in the series with carboxylesterase [4], the “effect on hydrolysis of III” value was “weak inhibition”.

On to `CCCC(C(=O)OCCN(CC)CC)(c1ccccc1)c1ccccc1` [Proadifen, proadifen], for which the “effect on hydrolysis of III” value in the series on carboxylesterase [4] is “did not affect hydrolysis”.

The values are drawn from patent publication US20050249805A1, “Compositions and methods for treating hepatitis C virus (HCV) infection” (priority 2003, published 2005).
